The term MIC denotes the lowest concentration found to suppress growth. Read a low MIC as inhibition by little substance. By MBC is commonly meant the smallest concentration meeting the test's criterion for killing. Low values mean more potent killing, high ones less potent killing.

1 molecule from patent publication US20240417435A1, “DEFENSIN-DERIVED PEPTIDE WITH ANTIBACTERIAL ACTIVITY ALSO AGAINST MULTI-ANTIBIOTIC-RESISTANT BACTERIA” (priority 2021, published 2024) can be followed below.

≈ marks a conversion by molar mass, not a printed value. Where a SMILES comes first, the peptide text is derived from it.

For assay [1], the system named is A. baumannii MDR strain 2. In kind it is cell-based, Acinetobacter baumannii complex. The protocol: (§1) The antimicrobial activity of peptide γ2 was evaluated versus Pseudomonas aeruginosa ATCC 27853, Escherichia coli ATCC 13762 and Staphylococcus aureus ATCC 6538, and versus multidrug-resistant (MDR) clinical isolates of Methicillin-Resistant Staphylococcus aureus (MRSA), extended-spectrum β-lactamase (ESBL)-producing E. coli, P. aeruginosa and Acinetobacter baumannii complex. The isolates were identified by mass spectrometry using the MALDI (matrix-assisted laser desorption/ionisation) mass spectrometer and the biochemical phenotyping method in a VITEKR 2 bioMérieux system (bioMérieux Italia S.p.a., Bagno a Ripoli, Florence, Italy), according to the manufacturer's instructions. The antibiotic susceptibility profile was evaluated with the VITEKR 2 bioMérieux System. The microorganisms were cultured in broth and agar at 37° C. The media used were BD Brain Heart Infusion broth (BHI) (BD, Franklin Lakes, NJ, USA) and BHI agar (OXOID, Basingstoke, Hampshire, UK), BD Trypticase Soy agar with 5% sheep's blood and MacConkey agar (OXOID, Basingstoke, Hampshire, UK). The isolates were stored frozen at −80° C. in BHI broth supplemented with 10% (v/v) glycerol (Carlo Erba Reagents, Milan, Italy) until use, and the work cultures were activated in the respective broths at 37° C. for 15-18 h.
(§2) Assays of the antibacterial activity of peptide γ2, in both reduced and oxidised form, were conducted against P. aeruginosa ATCC 27853, E. coli ATCC 13762, S. aureus ATCC 6538 and MDR clinical isolates. The strains were cultured under aerobic conditions in BHI broth at 37° C. and incubated with peptide γ2 for 2 hours at 37° C. Various concentrations of peptide were used, ranging from 1 μM to 128 μM. Each test was conducted in triplicate with three independent cultures. The minimum inhibitory concentration (MIC) and the minimum bactericidal concentration (MBC) of the peptide were determined with a modified version of the Clinical and Laboratory Standards Institute broth microdilution assay, using a final inoculum concentration of 10^5 CFU/ml, as previously described (Scudiero O et al., Antimicrob Agents Chemother 2010; 54:2312-22; Scudiero O et al. Antimicrob Ag Chemother 2013; 57:1701-8).
(§3) The MIC is indicated by the concentration interval, which comprise the upper growth limit and the first concentration which could not support visible bacterial growth after incubation. The MBC was defined as the lowest concentration at which no viable colonies were observed. The peptide concentrations were 128.0, 64.0, 32.0, 16.0, 8.0, 4.0, 2.0 and 1 μM. For the time-kill studies against the ATCC and MDR strains, the bacteria were cultured in BHI broth until the late log growth phase at 37° C. The bacterial suspensions, containing about 10^6 CFU/ml (adjusted by the spectrophotometer to OD600 nm), were diluted 1:100 in PBS1× and then incubated at 37° C. with or without the peptide, selected at concentrations corresponding to 1, 2 and 4×MIC (as determined above). At baseline and 1, 2, 3 and 5 hours after incubation, a portion of each sample was harvested, diluted in series in PBS1× and seeded on BHI agar. The plates were incubated for […] at 37° C., and the viable bacteria count was conducted by the CFU method. All the data were expressed as mean±SD of three independent experiments.

The test system of assay [2] is A. baumannii MDR strain 1. In kind it is cell-based, Acinetobacter baumannii complex. As for the experimental part:
as §1, §2, §3

The test system of the next assay is MRSA strain 1. The class given is cell-based, Staphylococcus aureus. As for the experimental part: as §1, §2, §3
In the next assay the test system is MRSA strain 2. In kind it is cell-based, Staphylococcus aureus. As for the experimental part:
as §1, §2, §3

In another assay the test system is MRSA strain 3. In kind it is cell-based, Staphylococcus aureus. The protocol:
as §1, §2, §3

The next assay deals with S. aureus ATCC 6538. In kind it is cell-based, Staphylococcus aureus. The protocol:
as §1, §2, §3

For assay [3], the system named is S. aureus ATCC 6538 (intracellular, HeLa cells). Nature of the assay: Invasion and protection assay in HeLa cells. The class given is cell-based, Staphylococcus aureus. The settings on record: wild-type strain S. aureus ATCC 6538 in HeLa cells; 40 μM for 1 h; all times tested. The protocol: (§4) The S. aureus ATCC 6538, MRSA strain 2 and MRSA strain 3 invasion assays were conducted as previously described (Colicchio R et al., Antimicrob Agents Chemother 2015; 59:7637-49; Spinosa M R et al. Infect Immun 2007; 75:3594-3603). HeLa cells (ATCC CCL-2) were used for the standard invasion and intracellular viability assays. The cells were cultured in DMEM with 2 mM L-glutamine. The cells were infected at a multiplicity of infection (MOI) of 50 for 1 h, washed twice with PBS1× to eliminate most of the extracellular bacteria, exposed to gentamicin (Sigma-Aldrich) to kill the remaining extracellular bacteria, and then destroyed with saponin (0.5%) to release the intracellular bacteria. To quantify the intracellular staphylococci released by the HeLa cells, the lysed cell suspension was plated on BHI agar, and the number of CFUs was counted the next day. When required, cells were re-incubated in the cell culture medium for various times (3 and 5 hours) after treatment with gentamicin. Treatment with gentamicin was conducted using 105 μM, a concentration 10 times higher than the MIC, for 30 minutes at 37° C. with 5% CO2. Cells were then washed thoroughly with PBS1× to remove the gentamicin and dead extracellular bacteria, and then lysed or re-incubated with medium. To evaluate the protection with the reduced peptide γ2 after treatment with gentamicin, the molecule was added to the sample at the final concentration of 40 µM for 1 hour, then washed twice with PBS1×, and finally destroyed with saponin. As the antibacterial activity of the reduced and oxidised peptide γ2 against S. aureus ATCC 6538 was very similar (Table 1), only the reduced form was used in the test. In all the experiments, the bacteria were centrifuged (60×g) on the cells to start the assay. The experiments were conducted in triplicate, and the data were expressed as mean±SD.

In assay [4] the test system is MRSA strain 3 (intracellular, HeLa cells). Nature of the assay: Invasion and protection assay in HeLa cells. The note with it: MRSA 3 strain in HeLa cells; 40 μM for 1 h; all times tested. The class given is cell-based, Staphylococcus aureus. The protocol:
as §4

Assay [5] deals with MRSA strain 2 (intracellular, HeLa cells). The assay is described as follows: Invasion and protection assay in HeLa cells. In kind it is cell-based, Staphylococcus aureus. The note with it: MRSA 2 strain in HeLa cells; 40 μM for 1 h. As for the experimental part:
as §4

The next assay concerns E. coli ESBL strain 1. The class given is cell-based, Escherichia coli. The protocol:
as §1, §2, §3

The subject of the next assay is E. coli ESBL strain 2. The class given is cell-based, Escherichia coli. As for the experimental part: as §1, §2, §3

Take `CC[C@H](C)[C@H](NC(=O)[C@H](CCC(N)=O)NC(=O)[C@H](CCCNC(=N)N)NC(=O)[C@H](CCCNC(=N)N)NC(=O)[C@H](CCCCN)NC(=O)[C@@H]1CCCN1C(=O)[C@H](CC(C)C)NC(=O)[C@H](CS)NC(C)=O)C(=O)NCC(=O)N[C@@H](CCCCN)C(=O)N[C@@H](CO)C(=O)N[C@@H](CO)C(=O)N[C@H](C(=O)N[C@@H](CCCNC(=N)N)C(=O)NCC(=O)N[C@@H](CCCNC(=N)N)C(=O)N[C@@H](CCCCN)C(=O)N[C@@H](CO)C(=O)N[C@@H](CS)C(=O)N[C@@H](CCCCN)C(=O)N[C@@H](CCCCN)C(N)=O)[C@@H](C)O` [Reduced peptide γ2] (Ac-CLPKRRQIGKSSTRGRKSCKK-NH2): the MIC in [1] (A. baumannii MDR strain 2) is 1 µM (≈ 2.46 µg/mL); in the assay with MRSA strain 1 it was 1 µM (≈ 2.46 µg/mL); in the assay with MRSA strain 2, 4 to 8 µM; against MRSA strain 3, 1 µM (≈ 2.46 µg/mL); against E. coli ESBL strain 1, 2 µM (≈ 4.92 µg/mL); in the assay on E. coli ESBL strain 2, 2 µM (≈ 4.92 µg/mL). The MBC is 1 µM (≈ 2.46 µg/mL) in assay [1] (MDR strain 2); 64 µM (≈ 157 µg/mL) in assay [2]; 1 µM (≈ 2.46 µg/mL) in the assay on MRSA strain 1; 16 µM (≈ 39.3 µg/mL) with MRSA strain 2; 4 µM (≈ 9.84 µg/mL) in the assay on MRSA strain 3; 1 to 2 µM in the assay on S. aureus ATCC 6538. The figures for the MBC in the assay with E. coli ESBL strain 1 and with E. coli ESBL strain 2 were 2 µM (≈ 4.92 µg/mL) and 16 µM (≈ 39.3 µg/mL), respectively. Further, the “viable intracellular bacteria (CFU)” value in assay [3] was “great reduction in viable intracellular bacteria”; in [4] it was “great reduction in viable intracellular bacteria”; in [5], “bacteriostatic effect”.
